Results on twelve molecules are retold here after patent publication US8304428B2, “Compounds and methods for inhibiting the interaction of BCL proteins with binding partners” (Infinity Discovery, Inc., priority 2005, dated 2012).

Some results are limits rather than exact numbers.

Chain of Bcl-2 (P10415 whole entry): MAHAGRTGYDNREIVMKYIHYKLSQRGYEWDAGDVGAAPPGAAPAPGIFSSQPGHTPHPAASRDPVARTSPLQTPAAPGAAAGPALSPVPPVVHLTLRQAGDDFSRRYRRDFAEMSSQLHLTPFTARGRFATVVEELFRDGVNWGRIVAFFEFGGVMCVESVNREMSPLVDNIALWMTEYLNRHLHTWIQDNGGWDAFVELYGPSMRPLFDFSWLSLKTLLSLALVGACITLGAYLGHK

In this assay the target is Bcl-2 (Homo sapiens, UniProt P10415). The assay is described as follows: Bcl-2 binding affinity analysis (fluorescence polarization binding assay). From the text:
Bcl-2 and Bcl-xL binding can be determined using a variety of known methods. One such assay is a sensitive and quantitative in vitro binding assay using fluorescence polarization (FP) described by Wang, J.-L.; Zhang, Z-J.; Choksi, S.; Sjam. S.; Lu, Z.; Croce, C. M.; Alnemri, E. S.; Komgold, R.; Huang, Z. Cell permeable Bcl-2 binding peptides: a chemical approach to apoptosis induction in tumor cells. Cancer Res. 2000, 60, 1498-1502).
Bcl-2 binding affinity analysis data is presented below for various compounds of the invention.
As to `COc1c(CN2CCC[C@@H]2C(=O)N[C@H]2C[C@H]3C[C@@H]([C@@H]2C)C3(C)C)cccc1-c1cc(C(=O)N[C@@H](Cc2ccccc2)CN(C)C)cc([N+](=O)[O-])c1` [Compound 18], the Ki fell in the range of 300 to 50000 nM. Molecule `COc1c(CN2CC[C@H](O)[C@H]2C(=O)N[C@H]2C[C@H]3C[C@@H]([C@@H]2C)C3(C)C)cccc1-c1cc(C(=O)N[C@@H](Cc2ccccc2)CN(C)C)cc(N(C)C)c1` [Compound 26] had a Ki below 100 nM. The molecule `COc1c(CN2C[C@@H](N)C[C@H]2C(=O)N[C@H]2C[C@H]3C[C@@H]([C@@H]2C)C3(C)C)cccc1-c1cc(C(=O)N[C@@H](Cc2ccccc2)CN(C)C)cc(N(C)C)c1` [Compound 36] registered a Ki below 100 nM. Molecule `COc1c(CN2CCCC[C@H]2C(=O)N[C@H]2C[C@H]3C[C@@H]([C@@H]2C)C3(C)C)cccc1-c1cc(C(=O)N[C@@H](Cc2ccccc2)CN(C)C)cc(N(C)C)c1` [Compound 37] yielded a Ki above 50000 nM. With `COc1c(CN2C[C@H](N)C[C@H]2C(=O)N[C@H]2C[C@H]3C[C@@H]([C@@H]2C)C3(C)C)cccc1-c1cc(C(=O)N[C@@H](Cc2ccccc2)CN(C)C)cc(N(C)C)c1` [Compound 35], the Ki is below 100 nM. Regarding `COc1c(CN2CCC[C@H]2C(=O)N[C@H]2C[C@H]3C[C@@H]([C@@H]2C)C3(C)C)cccc1-c1cc(C(=O)N[C@@H](Cc2ccccc2)CN(C)C)cc([N+](=O)[O-])c1` [Compound 13], the Ki was above 50000 nM.

For the molecule `CCN1CCC[C@@H]1CNC(=O)c1cc(-c2cccc(CN3C[C@H](O)[C@@H]([C@H](C)O)[C@H]3C(=O)NC3C[C@H]4C[C@@H]([C@@H]3C)C4(C)C)c2OC)cc(N(C)C)c1` (stereo partly drawn) [Compound 23], the Ki is below 100 nM. Next, `C[C@H](O)[C@H]1[C@@H](C(=O)NC2C[C@H]3C[C@@H]([C@@H]2C)C3(C)C)N(Cc2cccc(-c3ccc(C(=O)N(C)C)cc3)c2)C[C@@H]1O` (stereo partly drawn) [Compound 24]: above 50000 nM; `COc1c(CN2C[C@H](O)[C@@H]([C@H](C)O)[C@H]2C(=O)NC2C[C@H]3C[C@@H]([C@@H]2C)C3(C)C)cccc1-c1cc(C(=O)NCCc2ccccc2)cc(N(C)C)c1` (stereo partly drawn) [Compound 1]: below 100 nM. Molecule `COc1c(CN2CSC(C)(C)[C@H]2C(=O)N[C@H]2C[C@H]3C[C@@H]([C@@H]2C)C3(C)C)cccc1-c1cc(C(=O)N[C@@H](Cc2ccccc2)CN(C)C)cc(N(C)C)c1` [Compound 34] yielded a Ki below 100 nM. On to `COc1c(CN2CSC[C@H]2C(=O)N[C@H]2C[C@H]3C[C@@H]([C@@H]2C)C3(C)C)cccc1-c1cc(C(=O)N[C@@H](Cc2ccccc2)CN(C)C)cc(N(C)C)c1` [Compound 33], for which the Ki was below 100 nM.

Take `COc1c(CN2CCOC[C@H]2C(=O)N[C@H]2C[C@H]3C[C@@H]([C@@H]2C)C3(C)C)cccc1-c1cc(C(=O)N[C@@H](Cc2ccccc2)CN(C)C)cc(N(C)C)c1` [Compound 38]: the Ki was 300 to 50000 nM.
